Test results published in patent US8586505B2 (SDS Biotech K. K., priority 2009, dated 2013).

What was measured:
[1] = system: Pseudoperonospora cubensis; assay: Test of examining control effect on Pseudoperonospora cubensis (potted cucumber plants); type: in vivo; details: 96 h, 10% wettable powder adjusted to 125 ppm, 15 ml/pot sprayed on potted cucumber plants one day before spray inoculation, assessed after 1 day wet chamber and 3 days greenhouse, read-out: Determination of control effect (preventive value) on Pseudoperonospora cubensis
Method in brief: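 Preventive treatment: 125 ppm sample agent solution (from 10% wettable powder) sprayed at 15 ml/pot on 2.5-leaf Sagamihanjiro cucumbers, then P. cubensis inoculated next day at 1.0×10^4 cells/ml. Incubation was 1 day wet at 21° C plus 3 days greenhouse. Lesion area rate compared with untreated gives preventive value (≥60% high).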

Phytophthora infestans = assay: whole plant or invertebrate; type: in vivo; details: in Solanum lycopersicum, 96 h, read-out: Determination of control effect (preventive value)
Sphaerotheca fuliginea = assay: Test of examining control effect on Sphaerotheca fuliginea (potted cucumber plants); type: in vivo; details: Podosphaera fuliginea, 336 h; 10% wettable powder adjusted to 125 ppm, 15 ml/pot sprayed on potted cucumber plants one day before spray inoculation; assessed after 14 days in greenhouse; read-out: Determination of control effect (preventive value) on Sphaerotheca fuliginea
Method in brief: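 Control effect rated high at preventive value 60–100% and low below 60%, from lesion area relative to untreated plants 14 days after spray inoculation with S. fuliginea (1.0×10^5 cells/ml). Compound applied at 125 ppm as wettable-powder spray one day before inoculation, on 2nd-leaf-stage Sagamihanjiro cucumber.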

C(#Cc1ccc2ccccc2c1)CCNc1ncnc2ccccc12 [compound 183]
pest or weed control at 125 µg/mL [1]: 60 to 100% | pest or weed control at 125 ppm (Phytophthora infestans): 60 to 100% | pest or weed control at 125 µg/mL (Sphaerotheca fuliginea): 60 to 100% | melting point: 159 to 160 °C

COCc1cc(F)c(F)cc1C#CCCNc1ncnc2ccccc12 [compound 146]
pest or weed control at 125 µg/mL [1]: 60 to 100% | pest or weed control at 125 ppm (Phytophthora infestans): 60 to 100% | pest or weed control at 125 µg/mL (Sphaerotheca fuliginea): 60 to 100% | melting point: 121 to 125 °C

FC(F)(F)c1ccc(Oc2nc(C#CCCNc3ncnc4ccccc34)cs2)cc1 [compound 220]
pest or weed control at 125 µg/mL [1]: 0 to 60% | pest or weed control at 125 ppm (Phytophthora infestans): 0 to 60% | pest or weed control at 125 µg/mL (Sphaerotheca fuliginea): 60 to 100% | melting point: 137 to 139 °C

CCOc1ccccc1C#CCCNc1ncnc2ccccc12 [compound 118]
pest or weed control at 125 µg/mL [1]: 60 to 100% | pest or weed control at 125 ppm (Phytophthora infestans): 60 to 100% | pest or weed control at 125 µg/mL (Sphaerotheca fuliginea): 60 to 100% | melting point: 119 to 120 °C

FC(F)(F)c1ccc(C#CCCNc2ncnc3ccccc23)cn1 [compound 198]
pest or weed control at 125 µg/mL [1]: 60 to 100% | pest or weed control at 125 ppm (Phytophthora infestans): 0 to 60% | pest or weed control at 125 µg/mL (Sphaerotheca fuliginea): 60 to 100% | melting point: 134 to 139 °C

C(#Cc1cncs1)CCNc1ncnc2sccc12 [compound 61]
pest or weed control at 125 µg/mL [1]: 60 to 100% | pest or weed control at 125 ppm (Phytophthora infestans): 60 to 100% | pest or weed control at 125 µg/mL (Sphaerotheca fuliginea): 60 to 100% | melting point: 156 to 158 °C

Fc1cccc(Oc2nc(C#CCCNc3ncnc4ccccc34)cs2)c1 [compound 225]
pest or weed control at 125 µg/mL [1]: 60 to 100% | pest or weed control at 125 ppm (Phytophthora infestans): 60 to 100% | pest or weed control at 125 µg/mL (Sphaerotheca fuliginea): 60 to 100% | melting point: 134 to 136 °C

Cc1nc(C#CCCNc2ncnc3sccc23)cs1 [compound 66]
pest or weed control at 125 µg/mL [1]: 60 to 100% | pest or weed control at 125 ppm (Phytophthora infestans): 0 to 60% | pest or weed control at 125 µg/mL (Sphaerotheca fuliginea): 0 to 60% | melting point: 160 to 161 °C

C(#Cc1nccs1)CCNc1ncnc2sccc12 [compound 62]
pest or weed control at 125 µg/mL [1]: 60 to 100% | pest or weed control at 125 ppm (Phytophthora infestans): 60 to 100% | pest or weed control at 125 µg/mL (Sphaerotheca fuliginea): 60 to 100% | melting point: 128 to 129 °C

N#Cc1cccc(Oc2nc(C#CCCNc3ncnc4ccccc34)cs2)c1 [compound 222]
pest or weed control at 125 µg/mL [1]: 60 to 100% | pest or weed control at 125 ppm (Phytophthora infestans): 0 to 60% | pest or weed control at 125 µg/mL (Sphaerotheca fuliginea): 60 to 100% | melting point: 137 to 139 °C

OCc1cccc(C#CCCNc2ncnc3ccccc23)c1 [compound 131]
pest or weed control at 125 µg/mL [1]: 60 to 100% | pest or weed control at 125 ppm (Phytophthora infestans): 60 to 100% | pest or weed control at 125 µg/mL (Sphaerotheca fuliginea): 60 to 100% | melting point: 113 to 115 °C

OCc1ccc(C#CCCNc2ncnc3ccccc23)cc1 [compound 132]
pest or weed control at 125 µg/mL [1]: 60 to 100% | pest or weed control at 125 ppm (Phytophthora infestans): 0 to 60% | pest or weed control at 125 µg/mL (Sphaerotheca fuliginea): 0 to 60% | melting point: 69 to 71 °C

C(#Cc1ccccc1)CC(Nc1ncnc2ccccc12)c1ccccc1 (stereo not drawn) [compound 301, 4-[(1,4-diphenyl-3-butynyl)amino]quinazoline]
pest or weed control at 125 µg/mL [1]: 0 to 60% | pest or weed control at 125 ppm (Phytophthora infestans): 0 to 60% | pest or weed control at 125 µg/mL (Sphaerotheca fuliginea): 0 to 60% | melting point: 141 to 143 °C

FC(F)(F)c1cccc(Oc2nc(C#CCCNc3ncnc4ccccc34)cs2)c1 [compound 219]
pest or weed control at 125 µg/mL [1]: 60 to 100% | pest or weed control at 125 ppm (Phytophthora infestans): 0 to 60% | pest or weed control at 125 µg/mL (Sphaerotheca fuliginea): 60 to 100% | melting point: 106 to 108 °C

Fc1cc(Cl)ccc1C#CCCNc1ncnc2ccccc12 [compound 164]
pest or weed control at 125 µg/mL [1]: 60 to 100% | pest or weed control at 125 ppm (Phytophthora infestans): 60 to 100% | pest or weed control at 125 µg/mL (Sphaerotheca fuliginea): 60 to 100% | melting point: 198 to 199 °C

C(#Cc1csc(-c2cccnc2)n1)CCNc1ncnc2sccc12 [compound 81]
pest or weed control at 125 µg/mL [1]: 60 to 100% | pest or weed control at 125 ppm (Phytophthora infestans): 0 to 60% | pest or weed control at 125 µg/mL (Sphaerotheca fuliginea): 0 to 60% | melting point: 175 to 177 °C

CS(=O)(=O)c1ccc(C#CCCNc2ncnc3ccccc23)cc1 [compound 120]
pest or weed control at 125 µg/mL [1]: 60 to 100% | pest or weed control at 125 ppm (Phytophthora infestans): 60 to 100% | pest or weed control at 125 µg/mL (Sphaerotheca fuliginea): 60 to 100% | melting point: 164 to 165 °C

Cc1cc(C)nc(C#CCCNc2ncnc3sccc23)n1 [compound 59]
pest or weed control at 125 µg/mL [1]: 0 to 60% | pest or weed control at 125 ppm (Phytophthora infestans): 0 to 60% | pest or weed control at 125 µg/mL (Sphaerotheca fuliginea): 0 to 60% | melting point: 112 to 113 °C

CSc1cccc(C#CCCNc2ncnc3ccccc23)c1 [compound 116]
pest or weed control at 125 µg/mL [1]: 60 to 100% | pest or weed control at 125 ppm (Phytophthora infestans): 60 to 100% | pest or weed control at 125 µg/mL (Sphaerotheca fuliginea): 60 to 100% | melting point: 141 to 142 °C

Clc1ncnc(NCCC#Cc2ccccc2)c1Cc1ccccc1 [compound 372]
pest or weed control at 125 µg/mL [1]: 0 to 60% | pest or weed control at 125 ppm (Phytophthora infestans): 0 to 60% | pest or weed control at 125 µg/mL (Sphaerotheca fuliginea): 0 to 60% | melting point: 157 to 158 °C

C=C(C)CCc1ccccc1C#CCCNc1ncnc2ccccc12 [compound 105]
pest or weed control at 125 µg/mL [1]: 60 to 100% | pest or weed control at 125 ppm (Phytophthora infestans): 60 to 100% | pest or weed control at 125 µg/mL (Sphaerotheca fuliginea): 60 to 100% | melting point: 92 to 94 °C
